The values below come from US9079913B2, “Spiro-oxindole MDM2 antagonists” (The Regents of the University of Michigan, priority 2009, dated 2015).

The nature of data set [1]: In vitro microsomal stability, rat. It is filed as in vitro ADME.
The subject of data set [2] is cancer cell lines with wild-type p53 / mutated or deleted p53 (ATCC). Kind of data set: Cell growth assay (WST-8), other cancer cell lines. It is filed as cell-based. Background: Formazan colour is commonly taken as a measure of viable cells.
Data set [3] relates to Isogenic HCT-116 colon cancer cell lines. Kind of data set: cells. It is filed as cell-based.
Protocol: Cells were seeded in 96-well flat bottom cell culture plates at a density of 2−3×10^3 cells/well with compounds and incubated for 4 days.
The mark [4] stands for this setting: Homo sapiens, LNCaP, read-out: LNCAP (p53 wild-type) IC50.
Where [5] appears, read: Homo sapiens, PC-3, read-out: PC-3 (deleted p53) IC50.
[6] abbreviates: Homo sapiens, SJSA-1, read-out: SJSA-1 (p53 wild-type) IC50.
Setting [7] is: Homo sapiens, HCT-116, read-out: HCT-116 (p53 wild-type) IC50.
[8] abbreviates: Homo sapiens, LNCaP, Table 19A, LNCAP cells, p53 wild-type, cell growth, read-out: LNCAP (p53 wild-type) IC50.
[9] abbreviates: Homo sapiens, PC-3, Table 19A, PC-3 cells, deleted p53, cell growth, read-out: PC-3 (deleted p53) IC50.
The mark [10] stands for this setting: Homo sapiens, SJSA-1, Table 19A, SJSA-1 cells, p53 wild-type, cell growth, read-out: SJSA-1 (p53 wild-type) IC50.
Setting [11] is: Homo sapiens, HCT-116, read-out: HCT-116 (p53-/-) IC50, Table 19A, HCT-116 p53-/-, cell growth.
The mark [12] stands for this setting: Homo sapiens, HCT-116, read-out: HCT-116 (p53 wild-type) IC50, Table 19A, HCT-116 p53 wild-type, cell growth.
Setting [13] is: Homo sapiens, LNCaP, Table 19B, LNCaP cells, read-out: Inhibition of cell growth IC50, LNCaP.
Where [14] appears, read: Homo sapiens, HCT-116, read-out: Inhibition of cell growth IC50, HCT116 p53 WT, Table 19B, HCT116 p53 WT.
[15] abbreviates: read-out: SJSA-1 (p53 wild-type) IC50.

Read-outs that look alike come from different tables or passages of the source.

`CC(C)(C)CC1NC(C(=O)NCCN2CCOCC2)C(c2cccc(Cl)c2F)C12C(=O)Nc1cc(Cl)ccc12` (stereo not shown) [MI-63]: the “% of compound remaining when incubated in rat liver microsomes” value (“% of compound remaining when incubated” below) was 100% in data set [1] (Table 16, 0 min); 76% in data set [1] (Table 16, 4 min); 57.9% in data set [1] (Table 16, 6 min); 35.4% in data set [1] (Table 16, 10 min); 27.7% in data set [1] (Table 16, 15 min); 21% in data set [1] (Table 16, 30 min).

For `CC(C)(C)CC1NC(C(=O)NCCN2CCCC2)C(c2cccc(Cl)c2F)C12C(=O)Nc1cc(Cl)ccc12` (stereo not shown) [MI-120], the “% of compound remaining when incubated” value in data set [1] (Table 16, 0 min) was 100%; in data set [1] (Table 16, 4 min), 95.1%; in data set [1] (Table 16, 6 min), 88.1%; in data set [1] (Table 16, 10 min) it was 84.7%; in data set [1] (Table 16, 15 min) it was 82.1%; in data set [1] (Table 16, 30 min), 79%.

Regarding `CCN1CCN(CCNC(=O)C2NC(CC(C)(C)C)C3(C(=O)Nc4cc(Cl)ccc43)C2c2cccc(Cl)c2F)CC1` (stereo not shown) [MI-129], the “% of compound remaining when incubated” value in data set [1] (Table 16, 0 min) came to 100%; in data set [1] (Table 16, 4 min), 74.4%; in data set [1] (Table 16, 6 min) it was 52.5%; in data set [1] (Table 16, 10 min), 41.1%; in data set [1] (Table 16, 15 min) it was 36.7%; in data set [1] (Table 16, 30 min) it was 33.1%.

Regarding `CC(C)N1CCN(CCNC(=O)[C@@H]2N[C@H](CC(C)(C)C)[C@]3(C(=O)Nc4cc(Cl)ccc43)[C@H]2c2cccc(Cl)c2F)CC1` [MI-130], the “% of compound remaining when incubated” value in data set [1] (Table 16, 0 min) came out at 100%; in data set [1] (Table 16, 4 min), 77.2%; in data set [1] (Table 16, 6 min) it was 60.1%; in data set [1] (Table 16, 10 min), 48%; in data set [1] (Table 16, 15 min), 42.3%; in data set [1] (Table 16, 30 min), 34.1%.

Consider `CC(C)(C)C[C@H]1N[C@@H](C(=O)N[C@H]2CC[C@H](O)C2)[C@H](c2cccc(Cl)c2F)[C@@]12C(=O)Nc1cc(Cl)ccc12` [MI-519-51-epi], for which the IC50 in data set [2] (setting [4]) was below 2000 nM; in data set [2] (setting [5]) it was above 10000 nM.

For `CC(C)(C)C[C@H]1N[C@@H](C(=O)N[C@H]2C[C@H](NS(C)(=O)=O)C2)[C@H](c2cccc(Cl)c2F)[C@@]12C(=O)Nc1cc(Cl)ccc12` [MI-519-61], the IC50 in data set [2] (setting [4]), in data set [2] (setting [6]) and in data set [3] (setting [7]) was below 3000 nM in each case.

Regarding `CC(C)(C)C[C@H]1N[C@@H](C(=O)N[C@H]2C[C@](C)(O)C2)[C@H](c2cccc(Cl)c2F)[C@@]12C(=O)Nc1cc(Cl)ccc12` [MI-519-65], the “cell growth inhibition (in words)” value in data set [2] was “effectively inhibit cancer cell growth”. The IC50 in data set [2] (setting [4]) and in data set [2] (setting [6]) was below 3000 nM throughout.

With `CC(C)(C)C[C@H]1N[C@@H](C(=O)NC2CCN(CC(F)F)CC2)[C@H](c2cccc(Cl)c2F)[C@@]12C(=O)Nc1cc(Cl)ccc12` [MI-519-66], the IC50 in data set [2] (Homo sapiens, LNCaP, Table 19D, LNCaP cells, read-out: LNCaP IC50) was below 3000 nM; in data set [2] (Homo sapiens, PC-3, Table 19D, PC3 cells, read-out: PC3 IC50) it was 6890 nM; in data set [2] (Homo sapiens, Table 19D, SJSA-1 cells, unit inferred, read-out: SJSA-1) it was below 3000 nM; in data set [3] (Homo sapiens, HCT-116, read-out: HCT116p53KO IC50, Table 19D, HCT116 p53KO), 5510 nM; in data set [3] (Homo sapiens, HCT-116, read-out: HCT116p53WT IC50, Table 19D, HCT116 p53WT) it was below 2000 nM.

Take `CC(C)(C)C[C@H]1N[C@@H](C(=O)NC2CC(OC(=O)CN)C2)[C@H](c2cccc(Cl)c2F)[C@@]12C(=O)Nc1cc(Cl)ccc12` (stereo partly shown) [MI-519-69]: the IC50 in data set [2] (setting [8]) is below 5000 nM; in data set [2] (setting [9]), above 10000 nM; in data set [2] (setting [10]), below 5000 nM; in data set [3] (setting [11]), above 10000 nM; in data set [3] (setting [12]), below 5000 nM.

`CC(C)(C)C[C@H]1N[C@@H](C(=O)NC2CC(=O)C2)[C@H](c2cccc(Cl)c2F)[C@@]12C(=O)Nc1cc(Cl)ccc12` [MI-519-70]: the IC50 in data set [2] (setting [8]) is below 5000 nM; in data set [2] (setting [9]), above 10000 nM; in data set [2] (setting [10]) it was below 5000 nM; in data set [3] (setting [11]), above 10000 nM; in data set [3] (setting [12]) it was below 5000 nM.

For `CC(C)(C)C[C@@H]1N[C@@H](C(=O)N[C@H]2C[C@@](C)(O)C2)[C@H](c2cccc(Cl)c2F)[C@]12C(=O)Nc1cc(Cl)ccc12` [MI-519-6401], the IC50 came out at 300 nM in data set [2] (setting [4]), 10500 nM in data set [2] (setting [5]), 400 nM in data set [2] (setting [6]) and 100 nM in data set [3] (setting [7]).

Take `CN1[C@@H](C(=O)NCCN2CCOCC2)[C@H](c2cccc(Cl)c2F)[C@@]2(C(=O)Nc3cc(F)c(F)cc32)[C@H]1CC(C)(C)C` [MI-722]: the IC50 is above 100000 nM in data set [2] (setting [13]); above 100000 nM in data set [2] (Homo sapiens, PC-3, Table 19B, PC3 cells, read-out: Inhibition of cell growth IC50, PC3); above 100000 nM in data set [3] (Homo sapiens, HCT-116, read-out: Inhibition of cell growth IC50, HCT116 p53 KO, Table 19B, HCT116 p53 KO); above 100000 nM in data set [3] (setting [14]).

Consider `CNCC(=O)N1CCN(C(=O)[C@@H]2N[C@H](CC(C)(C)C)[C@]3(C(=O)Nc4cc(Cl)c(F)cc43)[C@H]2c2cccc(Cl)c2)CC1` [MI-747], for which the IC50 stood at 1300 nM in data set [2] (setting [8]), 3700 nM in data set [2] (setting [9]), 3900 nM in data set [3] (setting [11]) and 1300 nM in data set [3] (setting [12]).

On to `CC(C)(C)C[C@H]1N[C@@H](C(=O)NCC[C@H]2CC[C@@H](O)C2)[C@H](c2cccc(Cl)c2F)[C@@]12C(=O)Nc1cc(Cl)ccc12` [MI-753], for which the IC50 in data set [2] (setting [13]) was found to be 3200 ± 300 nM; in data set [2] (Table 19B, PC3 cells, read-out: Inhibition of cell growth IC50, PC3) it was 24700 ± 2700 nM; in data set [3] (setting [14]) it was 2900 ± 100 nM; in data set [3] (read-out: Inhibition of cell growth IC50, HCT116 p53 KO, Table 19B, HCT116 p53 KO), 21800 ± 4900 nM.

Consider `CC(C)(C)C[C@H]1N[C@@H](C(=O)NCCCCN2CCCC2)[C@H](c2cccc(Cl)c2F)[C@@]12C(=O)Nc1cc(Cl)c(F)cc12` [MI-765], for which the IC50 turned out to be 1500 ± 900 nM in data set [2] (setting [8]); 2600 ± 200 nM in data set [2] (setting [9]); 1400 ± 100 nM in data set [2] (setting [10]); 4700 ± 2000 nM in data set [3] (setting [11]); 1100 ± 200 nM in data set [3] (setting [12]).

For `CC(C)(C)C[C@H]1N[C@@H](C(=O)NCC[C@H]2CC[C@H](NS(C)(=O)=O)C2)[C@H](c2cccc(Cl)c2F)[C@@]12C(=O)Nc1cc(Cl)c(F)cc12` [MI-766], the IC50 turned out to be 900 nM in data set [2] (setting [8]); 5900 ± 2200 nM in data set [2] (setting [9]); 1700 ± 1400 nM in data set [2] (setting [10]); 6900 ± 1400 nM in data set [3] (setting [11]); 700 nM in data set [3] (setting [12]).

With `CC(C)(C)C[C@H]1N[C@@H](C(=O)NCC[C@H]2CC[C@H](N)C2)[C@H](c2cccc(Cl)c2F)[C@@]12C(=O)Nc1cc(Cl)c(F)cc12` [MI-767], the IC50 in data set [2] (setting [8]) came to 900 ± 200 nM; in data set [2] (setting [9]), 2200 ± 100 nM; in data set [2] (setting [10]), 900 ± 600 nM; in data set [3] (setting [11]), 2400 ± 1000 nM; in data set [3] (setting [12]) it was 700 ± 200 nM.

Take `CC(C)(C)C[C@H]1N[C@@H](C(=O)NCCCNS(C)(=O)=O)[C@H](c2cccc(Cl)c2F)[C@@]12C(=O)Nc1cc(Cl)c(F)cc12` [MI-768]: the IC50 in data set [2] (setting [8]) is 700 ± 200 nM; in data set [2] (setting [9]), 7300 ± 800 nM; in data set [2] (setting [10]), 800 ± 100 nM; in data set [3] (setting [11]), 9800 ± 400 nM; in data set [3] (setting [12]), 500 ± 200 nM.

For the molecule `CC(C)(C)C[C@H]1N[C@@H](C(=O)NCCNS(C)(=O)=O)[C@H](c2cccc(Cl)c2F)[C@@]12C(=O)Nc1cc(Cl)c(F)cc12` [MI-769], the IC50 in data set [2] (setting [8]) was 1500 nM; in data set [2] (setting [9]) it was 13000 nM; in data set [2] (setting [10]) it was 600 nM; in data set [3] (setting [11]), 10200 nM; in data set [3] (setting [12]), 1600 nM.

On to `CC(C)(C)C[C@H]1N[C@@H](C(=O)NC2CCC(O)CC2)[C@H](c2cccc(Cl)c2F)[C@@]12C(=O)Nc1cc(F)c(F)cc12` (stereo partly shown) [MI-786], for which the IC50 in data set [2] (setting [15]) is 800 nM.

With `CC(C)(C)C[C@H]1N[C@@H](C(=O)NC2CCC(O)CC2)[C@H](c2cccc(Cl)c2F)[C@@]12C(=O)Nc1cc(F)c(F)cc12` (stereo partly shown) [MI-7104], the IC50 in data set [2] (read-out: LNCAP (p53 wild-type) IC50) was below 3000 nM; in data set [2] (read-out: PC-3 (deleted p53) IC50) it was above 10000 nM; in data set [2] (setting [15]) it was below 3000 nM.

For the molecule `CC(C)(C)C[C@@H]1N[C@@H](C(=O)NC2CCC(O)CC2)[C@H](c2cccc(Cl)c2F)[C@]12C(=O)Nc1cc(Cl)ccc12` (stereo partly shown) [MI-77301], the IC50 in data set [2] (setting [4]) was found to be 100 nM; in data set [2] (setting [5]), 13000 nM; in data set [2] (setting [6]) it was 800 nM; in data set [3] (setting [12]), 100 nM.

With `CC(C)(C)C[C@@H]1N[C@@H](C(=O)NC2CCC(O)CC2)[C@H](c2cccc(F)c2F)[C@]12C(=O)Nc1cc(Cl)ccc12` (stereo partly shown) [MI-710201], the IC50 in data set [3] (setting [7]) was determined as 300 nM.
